Earlier results, collected in patent publication US8846744B2, “Pharmaceutical compositions of co-crystals of tramadol and coxibs” (Laboratorios del Dr. Esteve, S.A., priority 2010, dated 2014).

- solubility in water: practically insoluble
SMILES: Cc1ccc(-c2cc(C(F)(F)F)nn2-c2ccc(S(N)(=O)=O)cc2)cc1 [Celecoxib, 4-[5-(4-methylphenyl)-3-(trifluoromethyl)pyrazol-1-yl]benzenesulfonamide]
